From patent publication US20060122275A1, “Agentfor reducing side effects of diclofenac” (priority 2002, published 2006)

Columns and labels:
IP receptor = IP receptor (Homo sapiens, UniProt P43119); conditions: stated in words, no test described; cited from earlier work
EP1 receptor = target: T1, EP1 receptor (Homo sapiens, UniProt P34995); conditions: stated in words, no test described; cited from earlier work
T1 sequence (P34995 1-402): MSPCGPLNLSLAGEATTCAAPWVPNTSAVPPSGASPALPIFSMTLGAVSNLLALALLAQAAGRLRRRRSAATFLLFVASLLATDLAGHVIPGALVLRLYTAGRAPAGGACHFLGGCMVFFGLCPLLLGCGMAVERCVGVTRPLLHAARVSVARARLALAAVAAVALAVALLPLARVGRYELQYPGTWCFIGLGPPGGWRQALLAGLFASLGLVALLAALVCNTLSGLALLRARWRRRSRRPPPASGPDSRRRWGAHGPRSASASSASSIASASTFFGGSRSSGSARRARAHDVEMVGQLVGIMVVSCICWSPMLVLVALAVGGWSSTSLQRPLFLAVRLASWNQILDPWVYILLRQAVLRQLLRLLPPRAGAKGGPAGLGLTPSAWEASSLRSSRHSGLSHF

EP3 receptor = target: T2, EP3 receptor (Homo sapiens, UniProt P43115); conditions: stated in words, no test described; cited from earlier work
T2 sequence (P43115 1-390): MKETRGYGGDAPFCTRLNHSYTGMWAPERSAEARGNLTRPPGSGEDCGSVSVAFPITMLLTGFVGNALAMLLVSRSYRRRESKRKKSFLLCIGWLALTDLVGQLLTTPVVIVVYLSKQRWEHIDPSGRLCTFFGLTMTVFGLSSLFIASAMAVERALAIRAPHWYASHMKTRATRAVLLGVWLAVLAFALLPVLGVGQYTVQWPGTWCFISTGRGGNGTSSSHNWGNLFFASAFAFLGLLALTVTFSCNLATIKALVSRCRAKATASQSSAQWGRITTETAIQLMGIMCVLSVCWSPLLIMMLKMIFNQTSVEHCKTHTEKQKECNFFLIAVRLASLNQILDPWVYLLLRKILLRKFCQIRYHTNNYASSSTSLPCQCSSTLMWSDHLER

EP4 receptor = EP4 receptor (Homo sapiens, UniProt P35408); conditions: stated in words, no test described; cited from earlier work
[1] = tested on: Mycobacterium butyricum-induced inflammation, squeaking reaction; test: Analgesic effect in inflammation model (squeaking reaction); assay type: in vivo, Lew/Crj line male rats; conditions: OU administered vs OU un-administered group
Experimental: After measuring body weight of Lew/Crj line male rats, Mycobacterium butyricum cells suspended in liquid paraffin was administered by intracutaneous injection into the sole of left-side hind leg of each animal, under ether anesthesia at a dose of 0.1 ml/animal, thereby inducing inflammation. Also, this day was used as the 1st day of the inflammation induction treatment. […] Also, they were fasted for 16 to 24 hours under free water taking from the previous day of the measurement. […] A rat which was squeaking reaction-negative once or more by the 4 times of judgment after the sample liquid administration was judged analgesic effect-positive, and efficacy ratio (the number of animals having analgesic effect/the number of tested animals) was calculated. In addition, ulcer inhibition ratio was calculated in the same manner as described in (1).

[2] = tested on: glycerol-induced nephropathy; test: Effect of ornoprostil on glycerol-induced nephropathy; assay type: in vivo, SPF/Crj line male rats; conditions: serum 48 hours after glycerol, rats
Experimental: SPF/Crj line male rats (9 week-old) were measured for their body weight and then divided into groups in such a manner that average of body weights of respective groups became almost uniform. A 50% glycerol solution (medium: physiological saline) (10 ml/kg) was administered by subcutaneous injection to each rat which had been abstained from water for 48 hours (±2 hours) but under feeding, and about 1.5 ml of blood was collected 48 hours thereafter from jugular vein under ether anesthesia. […] Water was provided 2 hours after the glycerol administration. The thus collected blood was centrifuged (about 4° C., 3,000 rpm, 15 minutes) to obtain serum. The thus obtained serum was subjected to the measurement of […] (to be referred to as UN) (urease-G1DH method) and creatinine (to be referred to as CRE) (creatininase-F-DAOS method) using a biochemical automatic analyzer (AU 400 (trade name), Olympus Optical).

acid secretion = conditions: stated in words, no test described; cited from earlier work
[3] = tested on: gastrointestinal mucous membrane; conditions: stated in words, no test described; cited from earlier work
[4] = GC (subcutaneous) + OU (3 μg) oral
[5] = GC (subcutaneous) + OU (10 μg) oral

Chain of IP receptor (P43119 whole entry): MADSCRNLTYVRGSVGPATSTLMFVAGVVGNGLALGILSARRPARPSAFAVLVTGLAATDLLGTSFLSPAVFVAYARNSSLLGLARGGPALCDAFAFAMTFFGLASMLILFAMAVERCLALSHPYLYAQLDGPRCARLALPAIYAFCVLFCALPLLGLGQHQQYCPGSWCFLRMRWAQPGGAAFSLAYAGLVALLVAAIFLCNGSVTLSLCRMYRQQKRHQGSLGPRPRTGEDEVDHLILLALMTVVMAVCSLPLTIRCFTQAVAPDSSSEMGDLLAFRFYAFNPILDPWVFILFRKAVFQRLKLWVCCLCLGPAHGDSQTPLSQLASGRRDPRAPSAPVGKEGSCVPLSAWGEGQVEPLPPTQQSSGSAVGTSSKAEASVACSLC
Chain of EP4 receptor (P35408 whole entry): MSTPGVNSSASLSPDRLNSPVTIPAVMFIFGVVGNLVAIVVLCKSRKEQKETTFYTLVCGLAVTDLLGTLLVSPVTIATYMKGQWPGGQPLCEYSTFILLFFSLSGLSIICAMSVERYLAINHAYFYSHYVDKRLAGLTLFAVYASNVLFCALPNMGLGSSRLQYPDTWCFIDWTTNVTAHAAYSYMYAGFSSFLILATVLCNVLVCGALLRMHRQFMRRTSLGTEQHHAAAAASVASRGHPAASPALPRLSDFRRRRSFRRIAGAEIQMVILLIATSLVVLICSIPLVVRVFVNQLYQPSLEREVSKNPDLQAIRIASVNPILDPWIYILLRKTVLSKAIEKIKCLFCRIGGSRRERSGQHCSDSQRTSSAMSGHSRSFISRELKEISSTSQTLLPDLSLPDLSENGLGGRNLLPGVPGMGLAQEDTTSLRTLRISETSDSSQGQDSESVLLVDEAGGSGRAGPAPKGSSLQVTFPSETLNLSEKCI

Structure (SMILES) | Affinity for IP receptor (IP receptor) | Affinity for EP1 receptor (EP1 receptor) | Affinity for EP3 receptor (EP3 receptor) | Affinity for EP4 receptor (EP4 receptor) | Influence of OU administration upon the analgesic effect of NSAID [1] | CRE [2, 4] [mg/dL] | UN [2, 4] [mg/dL] | CRE [2, 5] [mg/dL] | UN [2, 5] [mg/dL] | Acid secretion inhibitory activity (acid secretion) | Site protection activity [3]
CCCCC(C)(O)C/C=C/[C@H]1[C@H](O)CC(=O)[C@@H]1CCCCCCC(=O)O (mixture of isomers) [misoprostol active body] | hardly has affinity | weak | strong | strong | – | – | – | – | – | – | –
CCCC[C@H](C)C[C@H](O)/C=C/[C@H]1[C@H](O)CC(=O)[C@@H]1CC(=O)CCCCC(=O)OC [ornoprostil, 17S,20-dimethyl-6-oxo-prostaglandin E1 methyl ester] | – | – | – | – | did not exert influence | 1.38 | 89.7 | 1.03 | 79.9 | weak | strong
